Where no end group is shown, it is not given here.
How the values were obtained:
[1] = test system: all bacterial strains in the panel and field isolates from milk; assay type: cell-based; details: against all bacterial strains in the panel and field isolates from milk
Method: (§1) The standard bacterial strains used for antimicrobial activity assays include Staphylococcus aureus ATCC (American Type Culture Collection, Manassas, VA, USA) 6538, Bacillus cereus ATCC 10876, Enterococcus faecalis ATCC 29212, Streptococcus agalactiae ATCC 27956, Streptococcus dysgalactiae ATCC 27957, Streptococcus equi subsp. zooepidemicus ATCC 43079, Escherichia coli ATCC 25922, and Pseudomonas aeruginosa ATCC 27853. Most bacterial strains were cultured in LB medium except for E. faecalis and streptococci, which were cultivated in brain heart infusion (BHI) broth (BD Bioscience).
(§2) All plates were cultivated aerobically.
(§3) Experiments were conducted in triplicate.

HaCaT cells = assay: Cytotoxicity, WST-1 cell viability; details: 24 h, 37 °C, repeated three times
Method: (§5) Human keratinocytes (HaCaT) and pig kidney fibroblast cells (PK15, ATCC CCL-33) were cultured in Dulbecco’s modified Eagle’s medium (DMEM; Hyclone™, Logan, UT, USA) and supplemented with 10% foetal bovine serum (FBS; Hyclone™, Logan, UT, USA), 1% penicillin–streptomycin (Hyclone™) at 37 °C, and 5% CO2 up to 80% confluence. Cell substratum adhesion was disrupted using Accutase (Innovative Cell Technologies, San Diego, CA, USA). A total of 4 × 10^4 cells were incubated for 24 h at 37 °C and 5% CO2 in each well of a 96-well plate containing 64 and 160 µg/mL of each peptide.
(§6) A positive control for complete cell lysis was established using Triton-X100 (1%), and untreated cells were used as the negative control. After incubation, the medium was removed from the wells and replaced with 10 µL of colouring solution (Cell Proliferation Reagent WST-1™) and 100 µL of DMEM (Hyclone™), per the manufacturer’s protocol. Each well absorbance was measured at 440 nm (peptide-treated and control) and 650 nm (background). These measurements were recorded as the optical density (OD) using a microplate reader (xMark™ spectrophotometer; Bio-Rad, CA, USA). Cell viability was calculated using the following equation: CellViability(%)=100×(ODpeptide-ODbackground)/(ODnegative-ODbackground)
(§7) All experiments were performed in triplicate.

PK15 cells = assay: Cytotoxicity, WST-1 cell viability; details: 24 h, 37 °C, repeated three times
Method: as §5, §6, §7

[2] = test system: field isolates from milk with high SCCs; details: all field isolates except A. hydrophila; range stated for the three peptides
Method: The minimum inhibitory concentration (MIC) was determined by following the manufacturer’s protocol and Clinical and Laboratory Standards Institute (CLSI) guidelines (2018) using a colourimetric method specified by the Microbial Viability Assay Kit-WST (Dojindo, Kumamoto, Japan). Four colonies of each bacterium were inoculated into 5 mL of LB medium and incubated at 37 °C for 4–6 h. The cells were then washed twice with sterile saline (0.9% NaCl) and seeded into a single well of a 96-well plate at a density of 1.5 × 10^5 cells/well, adjusting by McFarland standard 0.5. Subsequently, 180 µL/well of fresh MH broth (BD Bioscience) was added to the plate. Ampicillin, chloramphenicol, and gentamicin sulfate were used as controls for antimicrobial activity.
Different concentrations of each peptide and reference antibiotics (up to 40 µg/mL) were serially diluted in 10 µL of MH broth and added to each well. The plate was incubated at 37 °C for 6 h, using BHI broth to culture slow-growing fastidious strains, including E. faecalis, A. hydrophila, C. simulans, G. halophytocola, and streptococci. Cation-adjusted Mueller Hinton II broth (CAMHB) was employed to cultivate P. aeruginosa. Afterwards, 10 µL of the colouring reagent was added, and cells were incubated at 37 °C for 2 h. UV absorbance was measured for each well at 450 nm using a microplate spectrophotometer (xMark spectrophotometer; Bio-Rad, Hercules, CA, USA). The MIC values were determined when the absorbance difference between treatments and blanks (media and colouring reagent only) decreased to < 0.05. Experiments were conducted in triplicate.

[3] = test system: Staphylococcus chromogenes; assay: microbe, parasite or virus in culture; assay type: cell-based; details: 6 h
Method: as §2, §3

Corynebacterium simulans = assay: microbe, parasite or virus in culture; assay type: cell-based; details: 6 h
Method: as §2, §3

Staphylococcus xylosus = assay: microbe, parasite or virus in culture; assay type: cell-based; details: 6 h
Method: as §2, §3

[4] = test system: Staphylococcus epidermidis; assay: microbe, parasite or virus in culture; assay type: cell-based; details: 6 h
Method: as §2, §3

[5] = test system: Glutamicibacter halophytocola; assay: microbe, parasite or virus in culture; assay type: cell-based; details: 6 h
Method: as §2, §3

Streptococcus uberis = assay: microbe, parasite or virus in culture; assay type: cell-based; details: 6 h
Method: as §2, §3

E. coli (ATCC 25922) [6] = assay type: in vitro ADME, Escherichia coli
Method: (§4) The MICs against E. coli (ATCC 25922) for cc-CATH3, ML-CATH, and PD-CATH in 150 mM NaCl and different pH (pH 5, 6, and 7) that were adjusted using acetic acid (Sigma Aldrich) were determined as described above. For serum stability assay, each AMP at four different concentrations was dissolved in 50% (v/v) FBS (Hyclone™) and incubated at 37 °C for 0, 60, and 120 min, respectively. As described in a previous study, ΔHg-CATH was used as a control for serum sensitivity. The antimicrobial activity of cc-CATH3, ML-CATH, and PD-CATH against E. coli was assessed for each condition as above. All experiments were conducted in triplicate.
Figure 2 Changes in the antibacterial activity of cc-CATH3, ML-CATH, and PD-CATH after incubation with naïve serum. cc-CATH3, ML-CATH, and PD-CATH peptides were incubated in 50% (v/v) FBS each for 0, 60, and 120 min before applying to antimicrobial activity assay against E. coli (ATCC 25922). The antimicrobial activity was determined by measuring bacterial growth at OD 450 nm. The X and Y axes indicate peptide concentration and absorbance at 450 nm, respectively. Samples containing 50% FBS in the absence of the peptides indicate a control for bacterial growth without AMP treatments. The antimicrobial activity of cc-CATH3 (A), ML-CATH (B), and PD-CATH (C) after the treatment of FBS-incubated AMPs was shown.

bovine erythrocytes = assay: Haemolytic activity; assay type: cell-based; details: OD 410 nm, repeated three times
Method: The experimental procedures were conducted in accordance with the guidelines approved by the Institutional Animal Care and Use Committee (IACUC) of Konkuk University, Seoul, Korea, and bovine blood was collected from a cow at a local farm using a BD Vacutainer® Sodium Heparin (BD Bioscience) to analyse haemolytic activity. Plasma was removed from the whole blood by centrifugation. Erythrocytes were washed thrice with phosphate-buffered saline (PBS, pH 7.4) and resuspended in PBS at a concentration of 2% (v/v). Subsequently, 100 µL of the erythrocyte suspension was added to each well of a 96-well microtiter plate. The plate contained an equal volume of the peptides in PBS with different concentrations of 10, 20, 40, 80, and 160 μg/mL. Triton-X 100 (1%) and PBS were used as positive and negative controls, respectively. Plates were incubated at 37 °C for 1 h. The release of haemoglobin into the supernatant was monitored by measuring the change in OD at 410 nm using a microplate reader (xMark™ spectrophotometer; Bio-Rad). Results from three independent experiments were pooled. Hemolysis was calculated using the formula: HemolyticPercentage(%)=100×(ODpeptide-ODnegative)/(ODpositive-ODnegative)
All experiments were carried out in triplicate.

[7] = test system: eight standard bacterial strains; assay type: cell-based; details: all eight standard strains; range stated for the three peptides
Method: as §1, with “[…]” for “agalactiae ATCC”, “Bioscience). […] Experiments were conducted in triplicate.” for “Bioscience).”

[8] = test system: Enterococcus faecalis ATCC 29212; assay: microbe, parasite or virus in culture; assay type: cell-based; details: ATCC 29212, 6 h
Method: as §1, with “[…]” for “agalactiae ATCC”, “Bioscience). […] Experiments were conducted in triplicate.” for “Bioscience).”

[9] = test system: Bacillus cereus ATCC 10876; assay: microbe, parasite or virus in culture; assay type: cell-based; details: ATCC 10876, 6 h
Method: as §1, with “[…]” for “agalactiae ATCC”, “Bioscience). […] Experiments were conducted in triplicate.” for “Bioscience).”

[10] = test system: Streptococcus dysgalactiae ATCC 27957; assay: microbe, parasite or virus in culture; assay type: cell-based; details: ATCC 27957, 6 h
Method: as §1, with “[…]” for “agalactiae ATCC”, “Bioscience). […] Experiments were conducted in triplicate.” for “Bioscience).”

[11] = test system: Streptococcus agalactiae ATCC 27956; assay: microbe, parasite or virus in culture; assay type: cell-based; details: ATCC 27956, 6 h
Method: as §1, with “[…]” for “agalactiae ATCC”, “Bioscience). […] Experiments were conducted in triplicate.” for “Bioscience).”

[12] = test system: Pseudomonas aeruginosa ATCC 27853; assay: microbe, parasite or virus in culture; assay type: cell-based; details: ATCC 27853, 6 h
Method: as §1, with “[…]” for “agalactiae ATCC”, “Bioscience). […] Experiments were conducted in triplicate.” for “Bioscience).”

[13] = test system: Streptococcus equi subsp. zooepidemicus ATCC 43079; assay: microbe, parasite or virus in culture; assay type: cell-based; details: ATCC 43079, 6 h
Method: as §1, with “[…]” for “agalactiae ATCC”, “Bioscience). […] Experiments were conducted in triplicate.” for “Bioscience).”

[14] = test system: Staphylococcus aureus ATCC 6538; assay: microbe, parasite or virus in culture; assay type: cell-based; details: ATCC 6538, 6 h
Method: as §1, with “[…]” for “agalactiae ATCC”, “Bioscience). […] Experiments were conducted in triplicate.” for “Bioscience).”

E. coli (ATCC 25922) [15] = assay type: cell-based, Escherichia coli; details: ATCC 25922, pH 5
Method: as §3, §4

[16] = 10 μg/mL, 2% (v/v) erythrocytes in PBS pH 7.4, 37 °C 1 h, mean ± SD
[17] = 20 μg/mL, 2% erythrocytes in PBS pH 7.4, 37 °C 1 h
[18] = 40 μg/mL, 2% erythrocytes in PBS pH 7.4, 37 °C 1 h
[19] = 80 μg/mL, 2% erythrocytes in PBS pH 7.4, 37 °C 1 h

Method for PK15 and HaCaT cells: as §5, §6, §7

Sequence: ILGPALRIGGRIAGRIAGKLIGDAINRHRERNRQRRG [PD-CATH]
- minimum inhibitory concentration, range over strains [1]: 0.2 to 10.3 µM
- Cell viability ± SD, HaCaT (HaCaT cells; 64 μg/mL peptide): 100.2 ± 0.2%
- Cell viability ± SD, HaCaT (HaCaT cells; 160 μg/mL peptide): 11.4 ± 0.5%
- Cell viability ± SD, PK15 (PK15 cells; 64 μg/mL peptide): 43.6 ± 1.7%
- Cell viability ± SD, PK15 (PK15 cells; 160 μg/mL peptide): 7.4 ± 0.2%
- MICs, range over field isolates [2]: 0.8 to 5 µg/mL
- Minimal inhibitory concentration, Staphylococcus chromogenes [3]: 4 (1.0) μg/mL
- Minimal inhibitory concentration, Corynebacterium simulans (Corynebacterium simulans): 1 µg/mL
- Minimal inhibitory concentration, Staphylococcus xylosus (Staphylococcus xylosus): 3 (0.7) μg/mL
- Minimal inhibitory concentration, Staphylococcus epidermidis [4]: 3 (0.7) μg/mL
- Minimal inhibitory concentration, Glutamicibacter halophytocola [5]: 1 µg/mL
- Minimal inhibitory concentration, Streptococcus uberis (Streptococcus uberis): 5 (1.2) μg/mL
- antibacterial activity after incubation with serum (E. coli (ATCC 25922) [6]): remained unaffected under all the tested conditions
- Haemolytic activity against bovine erythrocytes (bovine erythrocytes; [16]): 0.4 ± 0.2%
- Haemolytic activity against bovine erythrocytes (bovine erythrocytes; [17]): 0.7 ± 0.4%
- Haemolytic activity against bovine erythrocytes (bovine erythrocytes; [18]): 2.9 ± 0.2%
- Haemolytic activity against bovine erythrocytes (bovine erythrocytes; [19]): 3.5 ± 0.2%
- MICs, range over all bacterial species in the test panel [7]: 2 to 42 µg/mL
- Minimal inhibitory concentration, Enterococcus faecalis [8]: 6 (1.5) μg/mL
- Minimal inhibitory concentration, Bacillus cereus [9]: 6 (1.5) μg/mL
- Minimal inhibitory concentration, Streptococcus dysgalactiae [10]: 18 (4.4) μg/mL
- Minimal inhibitory concentration, Streptococcus agalactiae [11]: 8 (2.0) μg/mL
- Minimal inhibitory concentration, Pseudomonas aeruginosa [12]: 42 (10.3) μg/mL
- Minimal inhibitory concentration, Streptococcus equi subsp. zooepidemicus [13]: 17 (4.2) μg/mL
- Minimal inhibitory concentration, Staphylococcus aureus [14]: 3 (0.7) μg/mL

Sequence: LNPLIKAGIFILKHRRPIGRGIEITGRGIKKFFSK [ML-CATH]
- minimum inhibitory concentration, range over strains [1]: 0.2 to 10.3 µM
- Cell viability ± SD, HaCaT (HaCaT cells; 64 μg/mL peptide): 99.7 ± 0.9%
- Cell viability ± SD, HaCaT (HaCaT cells; 160 μg/mL peptide): 98.0 ± 1.5%
- MIC against E. coli in more acidic conditions (E. coli (ATCC 25922) [15]): 2 µg/mL
- Cell viability ± SD, PK15 (PK15 cells; 64 μg/mL peptide): 96.2 ± 0.4%
- Cell viability ± SD, PK15 (PK15 cells; 160 μg/mL peptide): 38.0 ± 2.2%
- MICs, range over field isolates [2]: 0.8 to 5 µg/mL
- cell viability of PK15 and HaCaT (PK15 and HaCaT cells): 91.1 ± 1.8% to 100.6 ± 0.4
- Minimal inhibitory concentration, Staphylococcus chromogenes [3]: 2 (0.5) μg/mL
- Minimal inhibitory concentration, Corynebacterium simulans (Corynebacterium simulans): 1 (0.3) μg/mL
- Minimal inhibitory concentration, Staphylococcus xylosus (Staphylococcus xylosus): 2 (0.5) μg/mL
- Minimal inhibitory concentration, Staphylococcus epidermidis [4]: 2 (0.5) μg/mL
- Minimal inhibitory concentration, Glutamicibacter halophytocola [5]: 2 (0.5) μg/mL
- Minimal inhibitory concentration, Streptococcus uberis (Streptococcus uberis): 3 (0.8) μg/mL
- antibacterial activity after incubation with serum (E. coli (ATCC 25922) [6]): remained unaffected under all the tested conditions
- Haemolytic activity against bovine erythrocytes (bovine erythrocytes; [16]): 5.8 ± 0.4%
- Haemolytic activity against bovine erythrocytes (bovine erythrocytes; [17]): 6.4 ± 0.8%
- Haemolytic activity against bovine erythrocytes (bovine erythrocytes; [18]): 7.0 ± 0.8%
- Haemolytic activity against bovine erythrocytes (bovine erythrocytes; [19]): 7.7 ± 0.2%
- Haemolytic activity against bovine erythrocytes (bovine erythrocytes; 160 μg/mL, 2% erythrocytes in PBS pH 7.4, 37 °C 1 h): 11.8 ± 4.5%
- MICs, range over all bacterial species in the test panel [7]: 2 to 42 µg/mL
- Minimal inhibitory concentration, Enterococcus faecalis [8]: 5 (1.3) μg/mL
- Minimal inhibitory concentration, Bacillus cereus [9]: 3 (0.8) μg/mL
- Minimal inhibitory concentration, Streptococcus dysgalactiae [10]: 14 (3.5) μg/mL
- Minimal inhibitory concentration, Streptococcus agalactiae [11]: 8 (2.0) μg/mL
- Minimal inhibitory concentration, Pseudomonas aeruginosa [12]: 42 (10.6) μg/mL
- Minimal inhibitory concentration, Streptococcus equi subsp. zooepidemicus [13]: 9 (2.3) μg/mL
- Minimal inhibitory concentration, Staphylococcus aureus [14]: 2 (0.5) μg/mL

From PMC11566078, “Bactericidal activities and biochemical features of 16 antimicrobial peptides against bovine-mastitis causative pathogens” (Veterinary Research, 2024)
